From PubChem BioAssay (NCI)
“And” between values parts separate entries of the source, which are not always exact repeats. Equal values may be shown once.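 Dose response: 5 concentrations. Exposure: 48 h. Format: 96-well plates. Endpoint: linear interpolation; highest concentration if not reached. Abbreviation: GI50, concentration required for 50% inhibition of growth. The concentration for full growth arrest is given as TGI.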

What was measured:
Experiment in all cases: NCI tumour cell line growth inhibition, 48 h
SNB-78 CNS = tested on: SNB-78 CNS
COLO 205 colon = tested on: COLO 205 colon
SK-MEL-5 melanoma = tested on: SK-MEL-5 melanoma
IGROV1 ovarian = tested on: IGROV1 ovarian
SF-268 CNS = tested on: SF-268 CNS
M14 melanoma = tested on: M14 melanoma
PC-3 prostate = tested on: PC-3 prostate
BT-549 breast = tested on: BT-549 breast
XF 498 CNS = tested on: XF 498 CNS
LOX IMVI melanoma = tested on: LOX IMVI melanoma

SMILES	TGI (SNB-78 CNS)	TGI (COLO 205 colon)	TGI (SK-MEL-5 melanoma)	TGI (IGROV1 ovarian)	TGI (SF-268 CNS)	TGI (M14 melanoma)	TGI (PC-3 prostate)	TGI (BT-549 breast)	TGI (XF 498 CNS)	TGI (LOX IMVI melanoma)	GI50 (SK-MEL-5 melanoma)	GI50 (M14 melanoma)	GI50 (IGROV1 ovarian)	GI50 (SF-268 CNS)	GI50 (PC-3 prostate)	GI50 (LOX IMVI melanoma)	GI50 (SNB-78 CNS)	GI50 (COLO 205 colon)	GI50 (XF 498 CNS)	GI50 (BT-549 breast)
C[Si]12OCCCN(CCO1)CCO2	> 100 µM	> 100 µM	> 100 µM	> 100 µM	> 100 µM	–	–	–	–	–	–	–	–	–	–	–	–	–	–	–
NC1=C(Cl)C(=O)c2ccccc2C1=O	> 63.3 µM	30.8 µM	2.09 µM	26 µM	33.2 µM	3.26 µM	6 µM	4.19 µM	24.5 µM	7.91 µM	–	–	–	–	–	–	–	–	–	–
Cn1c(=O)oc2cc(C3CCC(=O)N3Cc3ccc(Cl)cc3)ccc21 (stereo unspecified)	> 100 µM	> 100 µM	> 100 µM	> 100 µM	> 100 µM	> 100 µM	–	–	> 100 µM	> 100 µM	–	–	–	–	–	–	–	–	–	–
Cc1cc2c(cc1Br)C1(C)CCC(C)C1(C)O2 (stereo unspecified)	> 100 µM	29.8 µM	80.1 µM	> 100 µM	> 100 µM	> 100 µM	–	–	50.6 µM	35.4 µM	–	–	–	–	–	–	–	–	–	–
CNC(=O)OCc1[nH]ccc2c(C)c3nc4ccc(OC)cc4c3cc12	> 100 µM	> 28.1 µM	12.8 µM	> 100 µM	> 100 µM	> 100 µM	–	–	> 33.8 µM	–	–	–	–	–	–	–	–	–	–	–
Cc1cc(NC(=O)NC(=O)c2ccccc2NC(=O)CN)ccc1Oc1ncc(Br)cn1	–	2.24 µM	43.9 µM and 26.8 µM	27.7 µM and 49.5 µM	43.2 µM and 29.5 µM	–	18.8 µM and > 100 µM	–	75 µM	34.1 µM and > 100 µM	0.2 µM and 0.0445 µM	0.117 µM	0.284 µM	0.608 µM	0.0816 µM	0.624 µM	–	–	–	–
O=C(O)CCCNS(=O)(=O)c1ccc2ccccc2c1	–	> 100 µM	> 100 µM	> 100 µM	> 100 µM	> 100 µM	–	–	> 100 µM	> 100 µM	–	–	–	–	–	–	–	–	–	–
CC(=O)O[C@H]1CC[C@@]2(C)C(=CC[C@@H]3C2CC[C@]2(C)Nc4[nH]ncc4CC32)C1 (stereo partly specified)	> 100 µM	–	42.5 µM	> 100 µM	–	42.9 µM	–	–	34.2 µM	–	–	–	–	–	–	–	–	–	–	–
CN(CCN(C)C(=O)CCOS(C)(=O)=O)C(=O)CCOS(C)(=O)=O	> 100 µM	> 100 µM	> 100 µM	> 100 µM	> 100 µM	> 100 µM	–	–	> 100 µM	> 100 µM	–	–	–	–	–	–	–	–	–	–
CCOC(=O)c1cnc2cc3cccccc3n2c1=O	> 100 µM	> 100 µM	–	> 100 µM	> 100 µM	> 100 µM	–	–	–	> 100 µM	–	–	–	–	–	–	–	–	–	–
Clc1cc(Cl)cc(Nc2nc3ccccc3nc2-c2cccs2)c1	> 100 µM	32.9 µM	–	–	> 100 µM	–	–	–	73.2 µM	> 100 µM	–	–	–	–	–	–	–	–	–	–
COc1ccc2c(c1)CCCC1C3=NCCC3(C)CSC21 (stereo unspecified)	> 100 µM	> 100 µM	> 100 µM	> 100 µM	> 100 µM	> 100 µM	–	–	> 100 µM	> 100 µM	–	–	–	–	–	–	–	–	–	–
O=CN1CCN(C=S)CC1	> 100 µM	> 100 µM	> 100 µM	> 100 µM	> 100 µM	> 100 µM	–	–	> 100 µM	> 100 µM	–	–	–	–	–	–	–	–	–	–
NC(=O)c1c2c(cc3c(=O)c4ccccc4[nH]c13)CCCC2	–	> 100 µM	> 100 µM	> 100 µM	> 100 µM	> 100 µM	–	–	> 100 µM	> 100 µM	–	–	–	–	–	–	–	–	–	–
CCC[CH2][Sn]1([CH2]CCC)[O]C(=O)CN=Cc2ccccc2[O]1	1.34 µM	1.27 µM	> 100 µM	> 100 µM	0.859 µM	1.37 µM	–	–	0.282 µM	0.527 µM	1.49 µM	0.368 µM	2.27 µM	0.286 µM	–	0.205 µM	0.232 µM	0.298 µM	0.137 µM	–
CC1CC2(CCC1OCc1ccccc1)OCCO2 (stereo unspecified)	> 100 µM	> 100 µM	> 100 µM	> 100 µM	–	> 100 µM	–	–	> 100 µM	> 100 µM	–	–	–	–	–	–	–	–	–	–

SMILES	TGI (SNB-78 CNS)	TGI (COLO 205 colon)	TGI (SK-MEL-5 melanoma)	TGI (IGROV1 ovarian)	TGI (SF-268 CNS)	TGI (M14 melanoma)	TGI (PC-3 prostate)	TGI (BT-549 breast)	TGI (XF 498 CNS)	TGI (LOX IMVI melanoma)	GI50 (SK-MEL-5 melanoma)	GI50 (M14 melanoma)	GI50 (IGROV1 ovarian)	GI50 (SF-268 CNS)	GI50 (PC-3 prostate)	GI50 (LOX IMVI melanoma)	GI50 (SNB-78 CNS)	GI50 (COLO 205 colon)	GI50 (XF 498 CNS)	GI50 (BT-549 breast)
CC1=CC2CC(C)C1(C)CCc1ccoc12 (stereo unspecified)	> 100 µM	> 100 µM	> 100 µM	> 100 µM	> 100 µM	> 100 µM	–	–	> 100 µM	> 100 µM	–	–	–	–	–	–	–	–	–	–
COC(=O)C1=Cc2c(cc(OC)c(OC)c2OC)[C@H](c2ccc(OC)c(OC)c2OC)C1C(=O)OC (stereo partly specified)	> 100 µM	> 100 µM	> 100 µM	> 100 µM	> 100 µM	> 100 µM	–	–	–	> 100 µM	–	–	–	–	–	–	–	–	–	–
Cc1c(O)c(=O)ccn1CCO	> 100 µM	> 100 µM	> 100 µM	–	> 100 µM	> 100 µM	–	–	> 100 µM	> 100 µM	–	–	–	–	–	–	–	–	–	–
CC1(C)Cc2c(Br)c(Br)c(Br)c(OCC(O)CN3CCOCC3)c2O1 (stereo unspecified)	–	27 µM	22 µM	28.4 µM	27.8 µM	37.1 µM	20.7 µM	22.3 µM	–	27.9 µM	10.2 µM	17.9 µM	14.1 µM	12.1 µM	7.93 µM	13.6 µM	–	13.4 µM	–	10.5 µM
CN(C)S(=O)(=O)c1ccc(Nc2ccc(O)c3c2C(=O)c2c([N+](=O)[O-])ccc(O)c2C3=O)cc1	–	> 100 µM	> 100 µM	> 100 µM	> 100 µM	> 100 µM	> 100 µM	> 100 µM	–	> 100 µM	–	–	–	–	–	–	–	–	–	–
CCOC(=O)C(=O)Nc1ccc(Cl)c(C(F)(F)F)c1	> 100 µM	> 100 µM	> 100 µM	> 100 µM	> 100 µM	> 100 µM	–	–	–	> 100 µM	–	–	–	–	–	–	–	–	–	–
CN1CCC(n2[nH]c(-c3ccccc3)c(Cc3ccccc3)c2=O)CC1	–	> 100 µM	> 100 µM	> 100 µM	> 100 µM	> 100 µM	> 100 µM	> 100 µM	–	> 100 µM	–	–	–	–	–	–	–	–	–	–
COc1cc2c(cc1OCCCN1CCN(c3cc(=O)oc4c(C)c(OC)ccc34)CC1)N=C[C@@H]1CCCN1C2=O	–	1.43 µM	3.83 µM	6.05 µM	> 20.9 µM	2.69 µM	12.8 µM	6.96 µM	–	6.87 µM	1.61 µM	1.24 µM	1.57 µM	0.91 µM	1.19 µM	0.826 µM	–	0.268 µM	–	1.21 µM
COc1ccc(-c2ccccc2)cc1-c1c(Nc2cc(Cl)cc(Cl)c2O)c(=O)c1=O	–	44.8 µM	2.25 µM	> 50 µM	> 50 µM	> 50 µM	> 50 µM	4.59 µM	–	> 50 µM	0.97 µM	1.72 µM	1.76 µM	1.31 µM	1.37 µM	1.72 µM	–	1.9 µM	–	1.41 µM
CC1(C)N[P+]2(Nc3ccccc3O2)OC1=O (stereo unspecified)	–	49.9 µM	> 100 µM	> 100 µM	> 100 µM	> 100 µM	> 100 µM	> 100 µM	–	> 100 µM	–	–	–	–	–	–	–	–	–	–
COc1ccc(/C=C\c2cc(OC)c(OC)c(OC)c2)cc1OCC(=O)Nc1nc2ccc(OC(F)(F)F)cc2s1	–	> 100 µM	22.9 µM	> 100 µM	> 100 µM	> 100 µM	> 100 µM	> 100 µM	–	> 100 µM	3.26 µM	4.36 µM	5.64 µM	6.01 µM	5.12 µM	4.77 µM	–	43.3 µM	–	10.5 µM
COc1cc(-c2n/c(=C\c3c(O)[nH]c4ccccc34)cc3c2=Nc2ccccc2-3)cc(OC)c1OC	–	6.7 µM	2.88 µM	> 24.5 µM	> 100 µM	4.26 µM	> 100 µM	2.47 µM	–	> 100 µM	0.289 µM	0.785 µM	2 µM	1.39 µM	2.19 µM	0.552 µM	–	1.55 µM	–	0.486 µM
Cc1ccc(/C(=C/C=C(C#N)C#N)Sc2ccccn2)cc1	–	3.79 µM	7.55 µM	17.4 µM	12.3 µM	6.29 µM	> 20.5 µM	6.85 µM	–	4.05 µM	2.51 µM	2.69 µM	4.79 µM	3.37 µM	4.65 µM	1.83 µM	–	1.72 µM	–	2.59 µM
Cc1cc2nc3c4cccc(O)c4n(CCN(C)C)c3nc2cc1C	–	19.4 µM	3.08 µM	10.8 µM	27.6 µM	3.43 µM	12.8 µM	32.8 µM	–	2.6 µM	1.67 µM	1.63 µM	1.32 µM	4.23 µM	1.88 µM	1.24 µM	–	3.89 µM	–	5.38 µM
c1cncc(CNc2ncn[nH]2)c1	–	> 100 µM	> 100 µM	> 100 µM	> 100 µM	> 100 µM	> 100 µM	> 100 µM	–	> 100 µM	–	–	–	–	–	–	–	–	–	–
